Legend:
[1] = molecular target: Serine/threonine-protein kinase Chk1 (Homo sapiens) (UniProt O14757); conditions: Compound concentration 1000.0 nM
[2] = molecular target: Serine/threonine-protein kinase D1 (Homo sapiens) (UniProt Q15139); conditions: Compound concentration 1000.0 nM
[3] = molecular target: Tyrosine-protein kinase ABL1 (Homo sapiens) (UniProt P00519); conditions: Compound concentration 1000.0 nM
[4] = molecular target: Serine/threonine-protein kinase DCLK1 (Homo sapiens) (UniProt O15075); conditions: Compound concentration 1000.0 nM
[5] = molecular target: Serine/threonine-protein kinase N2 (Homo sapiens) (UniProt Q16513); conditions: Compound concentration 1000.0 nM
[6] = molecular target: Serine/threonine-protein kinase RIO2 (Homo sapiens) (UniProt Q9BVS4); conditions: Compound concentration 1000.0 nM
Sequence of Serine/threonine-protein kinase RIO2 (Homo sapiens) (Q9BVS4 whole entry, looked up): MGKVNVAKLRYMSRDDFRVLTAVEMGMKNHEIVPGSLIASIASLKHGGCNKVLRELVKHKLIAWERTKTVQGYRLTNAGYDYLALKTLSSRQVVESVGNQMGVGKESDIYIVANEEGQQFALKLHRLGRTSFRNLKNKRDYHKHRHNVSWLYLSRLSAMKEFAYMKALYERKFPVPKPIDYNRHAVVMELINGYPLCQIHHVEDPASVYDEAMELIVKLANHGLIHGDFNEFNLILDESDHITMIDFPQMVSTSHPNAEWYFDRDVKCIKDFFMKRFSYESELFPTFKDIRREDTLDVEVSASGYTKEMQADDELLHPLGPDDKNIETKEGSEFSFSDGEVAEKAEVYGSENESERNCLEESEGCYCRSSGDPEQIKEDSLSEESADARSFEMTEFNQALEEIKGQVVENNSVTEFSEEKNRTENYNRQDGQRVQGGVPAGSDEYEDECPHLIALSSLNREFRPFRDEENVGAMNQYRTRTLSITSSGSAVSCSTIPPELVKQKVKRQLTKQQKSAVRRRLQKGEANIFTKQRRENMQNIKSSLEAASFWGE

[7] = molecular target: T1, Alpha-2B adrenergic receptor (Homo sapiens) (UniProt P18089); conditions: Compound concentration 10.0 uM
T1 sequence (whole entry): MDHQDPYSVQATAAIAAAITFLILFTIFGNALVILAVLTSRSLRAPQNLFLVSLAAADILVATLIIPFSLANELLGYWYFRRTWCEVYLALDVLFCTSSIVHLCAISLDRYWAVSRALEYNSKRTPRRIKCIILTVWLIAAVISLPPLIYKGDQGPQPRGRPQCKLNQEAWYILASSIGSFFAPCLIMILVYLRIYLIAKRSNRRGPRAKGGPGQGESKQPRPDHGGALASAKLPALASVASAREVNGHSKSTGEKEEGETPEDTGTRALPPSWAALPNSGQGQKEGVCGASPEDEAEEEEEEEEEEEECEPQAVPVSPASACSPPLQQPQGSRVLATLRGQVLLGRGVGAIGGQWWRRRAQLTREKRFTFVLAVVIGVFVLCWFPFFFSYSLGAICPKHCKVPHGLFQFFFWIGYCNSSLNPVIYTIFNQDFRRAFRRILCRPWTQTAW

[8] = molecular target: Angiopoietin-1 receptor (Homo sapiens) (UniProt Q02763); conditions: Compound concentration 1000.0 nM
[9] = molecular target: Mitogen-activated protein kinase 14 (Homo sapiens) (UniProt Q16539); conditions: Compound concentration 1000.0 nM
[10] = molecular target: Receptor-interacting serine/threonine-protein kinase 4 (Homo sapiens) (UniProt P57078); conditions: Compound concentration 1000.0 nM
[11] = molecular target: Serine/threonine-protein kinase Nek1 (Homo sapiens) (UniProt Q96PY6); conditions: Compound concentration 1000.0 nM
[12] = molecular target: Fibroblast growth factor receptor 4 (Homo sapiens) (UniProt P22455); conditions: Compound concentration 1000.0 nM
[13] = molecular target: Dual specificity mitogen-activated protein kinase kinase 6 (Homo sapiens) (UniProt P52564); conditions: Compound concentration 1000.0 nM
Sequence of Dual specificity mitogen-activated protein kinase kinase 6 (Homo sapiens) (P52564 whole entry): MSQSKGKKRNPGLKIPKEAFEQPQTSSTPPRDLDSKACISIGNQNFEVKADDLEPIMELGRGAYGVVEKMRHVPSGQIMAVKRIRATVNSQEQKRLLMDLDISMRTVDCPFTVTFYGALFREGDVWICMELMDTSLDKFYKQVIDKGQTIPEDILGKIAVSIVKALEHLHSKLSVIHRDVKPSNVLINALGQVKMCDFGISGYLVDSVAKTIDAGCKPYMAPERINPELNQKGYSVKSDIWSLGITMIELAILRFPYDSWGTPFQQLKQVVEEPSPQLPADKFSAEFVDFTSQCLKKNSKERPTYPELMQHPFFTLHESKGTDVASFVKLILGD

[14] = molecular target: Activin receptor type-1-like (Homo sapiens) (UniProt P37023); conditions: Compound concentration 1000.0 nM
[15] = molecular target: Macrophage colony-stimulating factor 1 receptor (Homo sapiens) (UniProt P07333); conditions: Compound concentration 1000.0 nM
[16] = molecular target: Proto-oncogene tyrosine-protein kinase Src (Homo sapiens) (UniProt P12931); conditions: Compound concentration 1000.0 nM
[17] = molecular target: Serine/threonine-protein kinase Chk2 (Homo sapiens) (UniProt O96017); conditions: Compound concentration 1000.0 nM
[18] = molecular target: Sodium-dependent serotonin transporter (Homo sapiens) (UniProt P31645); conditions: Compound concentration 10.0 uM
[19] = molecular target: Histamine H4 receptor (Homo sapiens) (UniProt Q9H3N8); conditions: Compound concentration 10.0 uM
[20] = molecular target: Sodium-dependent noradrenaline transporter (Homo sapiens) (UniProt P23975); conditions: Compound concentration 10.0 uM
[21] = molecular target: Serine/threonine-protein kinase ULK1 (Homo sapiens) (UniProt O75385); conditions: Compound concentration 1000.0 nM
[22] = test system: Epidermal growth factor receptor (Homo sapiens), P00533 [UNDEFINED MUTATION]; conditions: Compound concentration 1000.0 nM
Sequence of Epidermal growth factor receptor (Homo sapiens), P00533 [UNDEFINED MUTATION] (P00533 whole entry, looked up, change not shown): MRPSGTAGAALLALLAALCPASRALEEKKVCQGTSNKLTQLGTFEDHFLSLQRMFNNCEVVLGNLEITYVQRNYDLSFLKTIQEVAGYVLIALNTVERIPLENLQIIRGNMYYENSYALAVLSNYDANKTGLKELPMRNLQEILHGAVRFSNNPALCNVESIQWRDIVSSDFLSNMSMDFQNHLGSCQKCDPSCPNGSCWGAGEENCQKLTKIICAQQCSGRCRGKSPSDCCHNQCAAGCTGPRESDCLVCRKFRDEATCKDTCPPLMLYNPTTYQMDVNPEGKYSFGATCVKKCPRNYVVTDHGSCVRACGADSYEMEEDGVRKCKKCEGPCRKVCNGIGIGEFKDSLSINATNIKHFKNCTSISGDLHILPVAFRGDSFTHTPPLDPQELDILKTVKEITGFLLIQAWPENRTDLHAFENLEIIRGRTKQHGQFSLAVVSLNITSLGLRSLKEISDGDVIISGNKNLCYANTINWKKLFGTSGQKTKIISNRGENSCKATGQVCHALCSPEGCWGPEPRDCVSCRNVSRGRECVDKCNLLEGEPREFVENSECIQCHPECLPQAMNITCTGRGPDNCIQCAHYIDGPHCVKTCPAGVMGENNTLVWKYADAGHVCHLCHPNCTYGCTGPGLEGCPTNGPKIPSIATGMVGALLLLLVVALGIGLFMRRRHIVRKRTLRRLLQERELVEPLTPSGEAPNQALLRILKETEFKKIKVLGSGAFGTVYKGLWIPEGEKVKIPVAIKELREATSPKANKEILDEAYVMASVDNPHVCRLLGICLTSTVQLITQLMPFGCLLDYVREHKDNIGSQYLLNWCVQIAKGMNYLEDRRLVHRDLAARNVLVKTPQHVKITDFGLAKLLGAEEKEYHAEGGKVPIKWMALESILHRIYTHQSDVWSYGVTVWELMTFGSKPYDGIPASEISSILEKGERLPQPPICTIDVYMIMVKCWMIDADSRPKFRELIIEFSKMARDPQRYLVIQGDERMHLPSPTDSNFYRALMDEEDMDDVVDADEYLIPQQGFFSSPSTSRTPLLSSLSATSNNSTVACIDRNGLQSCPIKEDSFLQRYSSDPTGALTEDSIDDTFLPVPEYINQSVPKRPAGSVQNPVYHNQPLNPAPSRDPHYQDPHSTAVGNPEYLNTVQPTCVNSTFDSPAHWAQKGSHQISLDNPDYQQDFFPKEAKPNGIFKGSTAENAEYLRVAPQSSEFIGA

[23] = molecular target: Maternal embryonic leucine zipper kinase (Homo sapiens) (UniProt Q14680); conditions: Compound concentration 1000.0 nM
[24] = molecular target: Phosphatidylinositol 4,5-bisphosphate 3-kinase catalytic subunit delta isoform (Homo sapiens) (UniProt O00329); conditions: Compound concentration 1000.0 nM
[25] = test system: Mast/stem cell growth factor receptor Kit (Homo sapiens), P10721 [V559D,V654A]; conditions: Compound concentration 1000.0 nM
Sequence of Mast/stem cell growth factor receptor Kit (Homo sapiens), P10721 [V559D,V654A] (P10721 whole entry V559D/V654A): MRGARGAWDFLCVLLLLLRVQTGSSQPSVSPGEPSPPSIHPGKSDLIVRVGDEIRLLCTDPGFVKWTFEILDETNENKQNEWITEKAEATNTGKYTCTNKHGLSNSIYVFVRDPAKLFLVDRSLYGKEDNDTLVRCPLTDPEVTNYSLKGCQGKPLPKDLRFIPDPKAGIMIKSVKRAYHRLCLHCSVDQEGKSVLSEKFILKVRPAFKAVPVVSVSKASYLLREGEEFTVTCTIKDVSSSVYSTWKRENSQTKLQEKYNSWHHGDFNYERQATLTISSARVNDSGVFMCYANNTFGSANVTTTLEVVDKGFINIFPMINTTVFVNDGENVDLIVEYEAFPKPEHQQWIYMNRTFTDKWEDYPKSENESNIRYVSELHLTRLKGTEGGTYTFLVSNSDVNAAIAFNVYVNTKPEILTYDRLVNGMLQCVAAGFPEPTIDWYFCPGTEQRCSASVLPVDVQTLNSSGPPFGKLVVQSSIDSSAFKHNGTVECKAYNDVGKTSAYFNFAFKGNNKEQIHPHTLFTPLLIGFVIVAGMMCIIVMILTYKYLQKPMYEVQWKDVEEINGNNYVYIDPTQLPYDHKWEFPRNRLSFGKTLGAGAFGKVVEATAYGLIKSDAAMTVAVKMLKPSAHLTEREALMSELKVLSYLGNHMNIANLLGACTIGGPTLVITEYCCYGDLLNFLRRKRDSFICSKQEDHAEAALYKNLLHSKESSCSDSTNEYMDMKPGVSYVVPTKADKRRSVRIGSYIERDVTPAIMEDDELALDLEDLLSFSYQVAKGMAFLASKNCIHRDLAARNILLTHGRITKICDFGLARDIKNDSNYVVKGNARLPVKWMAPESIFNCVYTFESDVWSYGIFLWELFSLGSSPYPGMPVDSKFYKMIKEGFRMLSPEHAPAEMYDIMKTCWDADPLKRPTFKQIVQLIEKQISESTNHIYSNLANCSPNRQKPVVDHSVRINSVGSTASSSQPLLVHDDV

[26] = molecular target: Ribosomal protein S6 kinase beta-1 (Homo sapiens) (UniProt P23443); conditions: Compound concentration 1000.0 nM
Sequence of Ribosomal protein S6 kinase beta-1 (Homo sapiens) (P23443 whole entry, looked up): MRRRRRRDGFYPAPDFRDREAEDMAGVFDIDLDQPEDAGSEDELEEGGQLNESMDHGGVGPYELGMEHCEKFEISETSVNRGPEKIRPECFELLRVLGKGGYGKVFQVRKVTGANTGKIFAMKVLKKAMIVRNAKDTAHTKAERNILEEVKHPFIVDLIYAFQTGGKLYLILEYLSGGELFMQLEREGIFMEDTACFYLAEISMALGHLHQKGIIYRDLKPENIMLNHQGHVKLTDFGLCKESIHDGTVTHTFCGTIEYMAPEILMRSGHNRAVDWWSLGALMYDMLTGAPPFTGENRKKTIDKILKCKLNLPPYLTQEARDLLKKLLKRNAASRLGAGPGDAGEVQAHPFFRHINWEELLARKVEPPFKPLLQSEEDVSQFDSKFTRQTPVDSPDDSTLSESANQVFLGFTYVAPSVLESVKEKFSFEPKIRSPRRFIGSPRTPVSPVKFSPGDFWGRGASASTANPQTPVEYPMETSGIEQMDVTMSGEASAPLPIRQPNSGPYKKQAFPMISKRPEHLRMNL

[27] = test system: Receptor-type tyrosine-protein kinase FLT3 (Homo sapiens), P36888 [UNDEFINED MUTATION]; conditions: Compound concentration 1000.0 nM
[28] = molecular target: Serine/threonine-protein kinase NIM1 (Homo sapiens) (UniProt Q8IY84); conditions: Compound concentration 1000.0 nM
[29] = molecular target: T2, Muscarinic acetylcholine receptor M1 (Homo sapiens) (UniProt P11229); conditions: Compound concentration 10.0 uM
T2 sequence (whole entry): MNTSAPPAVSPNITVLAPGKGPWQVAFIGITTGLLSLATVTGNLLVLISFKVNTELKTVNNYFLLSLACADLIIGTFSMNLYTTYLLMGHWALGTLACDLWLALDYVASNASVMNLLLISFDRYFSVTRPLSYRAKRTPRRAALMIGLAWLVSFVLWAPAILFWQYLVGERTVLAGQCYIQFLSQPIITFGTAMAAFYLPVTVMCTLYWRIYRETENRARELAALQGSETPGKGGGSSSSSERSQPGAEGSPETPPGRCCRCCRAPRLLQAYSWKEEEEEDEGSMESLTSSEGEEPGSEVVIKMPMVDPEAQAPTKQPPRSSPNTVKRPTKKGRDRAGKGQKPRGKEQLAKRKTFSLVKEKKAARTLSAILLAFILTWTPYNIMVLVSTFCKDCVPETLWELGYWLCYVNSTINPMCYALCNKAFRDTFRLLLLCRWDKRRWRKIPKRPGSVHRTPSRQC

[30] = molecular target: NUAK family SNF1-like kinase 2 (Homo sapiens) (UniProt Q9H093); conditions: Compound concentration 1000.0 nM
[31] = molecular target: T3, 5-hydroxytryptamine receptor 2B (Homo sapiens, UniProt P41595); assay: Panlabs assay (HTR2B); parameters: compound concentration 10 uM
T3 sequence (P41595 whole entry): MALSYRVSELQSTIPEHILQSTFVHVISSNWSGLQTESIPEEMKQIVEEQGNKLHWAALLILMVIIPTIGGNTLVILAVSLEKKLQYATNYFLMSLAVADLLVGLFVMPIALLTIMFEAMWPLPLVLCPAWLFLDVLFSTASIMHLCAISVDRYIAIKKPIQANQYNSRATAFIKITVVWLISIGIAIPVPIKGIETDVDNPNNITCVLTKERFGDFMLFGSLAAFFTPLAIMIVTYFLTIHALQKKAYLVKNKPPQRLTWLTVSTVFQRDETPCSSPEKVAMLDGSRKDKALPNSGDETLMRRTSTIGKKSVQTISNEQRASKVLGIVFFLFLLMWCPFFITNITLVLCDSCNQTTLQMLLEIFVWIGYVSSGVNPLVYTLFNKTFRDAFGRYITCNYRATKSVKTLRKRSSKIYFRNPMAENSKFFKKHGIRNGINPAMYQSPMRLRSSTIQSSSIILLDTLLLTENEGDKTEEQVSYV

[32] = molecular target: T3, 5-hydroxytryptamine receptor 2B; assay: Inhibition of Serotonin (5-Hydroxytryptamine) 5-HT2B at compound concentration of 10.0 uM in the Eurofins-Panlabs radioligand binding assay (Eurofins_assay_271700); parameters: ligand concentration 1.2 nM, non-specific ligand with concentration 10 uM Serotonin (5-HT), incubation time 60 min, incubation temperature 37 C

Sequence of Serine/threonine-protein kinase D1 (Homo sapiens) (Q15139 whole entry): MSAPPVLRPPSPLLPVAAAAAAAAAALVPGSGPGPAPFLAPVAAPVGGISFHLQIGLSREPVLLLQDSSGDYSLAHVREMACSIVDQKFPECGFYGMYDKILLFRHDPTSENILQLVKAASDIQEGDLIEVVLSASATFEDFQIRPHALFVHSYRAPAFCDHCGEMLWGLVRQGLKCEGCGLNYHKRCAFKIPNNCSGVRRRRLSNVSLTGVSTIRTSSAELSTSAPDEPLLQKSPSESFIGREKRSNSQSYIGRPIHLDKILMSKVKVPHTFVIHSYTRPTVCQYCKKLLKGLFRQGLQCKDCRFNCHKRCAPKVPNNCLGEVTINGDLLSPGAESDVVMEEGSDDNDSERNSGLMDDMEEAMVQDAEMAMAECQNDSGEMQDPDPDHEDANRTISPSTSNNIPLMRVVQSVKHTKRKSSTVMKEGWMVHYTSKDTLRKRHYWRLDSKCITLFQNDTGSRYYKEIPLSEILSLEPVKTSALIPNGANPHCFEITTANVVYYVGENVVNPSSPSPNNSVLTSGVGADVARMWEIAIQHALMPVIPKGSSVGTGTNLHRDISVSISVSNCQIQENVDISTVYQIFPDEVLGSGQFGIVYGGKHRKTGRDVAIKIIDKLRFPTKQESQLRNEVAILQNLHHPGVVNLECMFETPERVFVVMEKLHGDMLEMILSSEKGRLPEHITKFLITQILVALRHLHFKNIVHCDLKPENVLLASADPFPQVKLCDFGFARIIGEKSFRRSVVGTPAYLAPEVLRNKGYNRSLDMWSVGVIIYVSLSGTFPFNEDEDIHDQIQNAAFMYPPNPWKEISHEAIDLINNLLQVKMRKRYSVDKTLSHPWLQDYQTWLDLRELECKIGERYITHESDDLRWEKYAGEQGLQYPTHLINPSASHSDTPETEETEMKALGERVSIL

Question: For `FC(F)(F)c1ccc2c(c1)nc(-c1cccnc1)n2C1CC1` [MSD-CYP11B2-Negative-control], which residual activity [1] is on record?
Answer: 100%

Question: What about the residual activity [2] of the same compound?
Answer: 100%

Question: And the residual activity [3]?
Answer: 91%

Question: What about the residual activity [4] of the same compound?
Answer: 84%

Question: What about the residual activity [5] of the same compound?
Answer: 100%

Question: What about the residual activity [6] of the same compound?
Answer: 100%

Question: What about the inhibition [7] of the same compound?
Answer: 43.3%

Question: What about the residual activity [8] of the same compound?
Answer: 100%

Question: What about the residual activity [9] of the same compound?
Answer: 99%

Question: And the residual activity [10]?
Answer: 95%

Question: What about the residual activity [11] of the same compound?
Answer: 100%

Question: And the residual activity [12]?
Answer: 100%

Question: What about the residual activity [13] of the same compound?
Answer: 98%

Question: And the residual activity [14]?
Answer: 100%

Question: And the residual activity [15]?
Answer: 100%

Question: And the residual activity [16]?
Answer: 100%

Question: And the residual activity [17]?
Answer: 100%

Question: What about the inhibition [18] of the same compound?
Answer: -5.44%

Question: And the inhibition [19]?
Answer: -9.43%

Question: What about the inhibition [20] of the same compound?
Answer: 17.2%

Question: What about the residual activity [21] of the same compound?
Answer: 100%

Question: And the residual activity [22]?
Answer: 87%

Question: And the residual activity [23]?
Answer: 94%

Question: What about the residual activity [24] of the same compound?
Answer: 81%

Question: What about the residual activity [25] of the same compound?
Answer: 100%

Question: What about the residual activity [26] of the same compound?
Answer: 100%

Question: And the residual activity [27]?
Answer: 100%

Question: What about the residual activity [28] of the same compound?
Answer: 100%

Question: What about the inhibition [29] of the same compound?
Answer: -7.11%

Question: What about the residual activity [30] of the same compound?
Answer: 100%

Question: What does the source list for `CC(C)(O)c1cncc(-c2nc3ccc(F)cc3n2C2CC2)c1` [MSD-CYP11B2]?
Answer: residual activity [1]: 100%; residual activity [2]: 100%; residual activity [3]: 89%; residual activity [4]: 88%; residual activity [5]: 100%; residual activity [6]: 100%; inhibition [7]: 76.4%; residual activity [8]: 93%; residual activity [9]: 100%; residual activity [10]: 100%; residual activity [11]: 100%; residual activity [12]: 100%; residual activity [13]: 100%; residual activity [14]: 100%; residual activity [15]: 99%; residual activity [16]: 100%; residual activity [17]: 100%; IC50 [31]: 5.33 µM; inhibition [20]: 2.3%; residual activity [21]: 100%; residual activity [22]: 100%; residual activity [23]: 100%; residual activity [24]: 100%; residual activity [25]: 87%; residual activity [26]: 100%; residual activity [27]: 100%; residual activity [28]: 100%; inhibition [29]: -4.49%; IC50 [32]: 5.33 µM; Ki [32]: 3.39 µM; residual activity [30]: 100%

— ChEMBL document CHEMBL4507294, “Data for DCP probe MSD-CYP11B2” (2021)
